Laboratory results as given in patent publication US20230210999A1, “TARGETED PROTEASE DEGRADATION (TED) PLATFORM” (EUBULUS BIOTHERAPEUTICS INC., priority 2020, published 2023).
Like-named read-outs stand apart in the source and are kept apart here.

Legend:
Type in all cases: cell-based, human
PC-3 = experiment: Cell proliferation experiment, PC-3
Summary of the method: (§1)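 Viability read by Alamar blue. 72 h treatment, 5-fold dilution series, duplicates; log-phase cells in 96-well plates; IC50 by curve fit.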

MDA-MB-231 cells = experiment: Cell proliferation experiment, MDA-MB-231
Summary of the method: as §1

Daudi cells = experiment: Cell proliferation experiment, Daudi; settings: read-out: Inhibitory activity IC50 on Daudi
Summary of the method: as §1

NCIH82 cells = experiment: Cell proliferation experiment, NCI-H82; settings: read-out: Inhibitory activity IC50 on NCI-H82
Summary of the method: as §1

MV4;11 cells = experiment: Cell proliferation experiment (Alamar blue, 72 h), MV4;11
Summary of the method: as §1

[1] = Homo sapiens, PC-3, PC-3 cells, read-out: Inhibitory activity IC50 on PC-3
[2] = Homo sapiens, MDA-MB-231, MDA-MB-231 cells, read-out: Inhibitory activity IC50 on MDA-MB-231
[3] = Homo sapiens, Daudi, Daudi cells
[4] = Homo sapiens, NCI-H82, NCI-H82 cells
[5] = Homo sapiens, MV4-11, MV4;11 cells, read-out: Inhibitory activity IC50 on MV4;11
[6] = PC-3 cells, read-out: Inhibitory activity IC50 on PC-3

Row | Structure (SMILES) | IC50 (PC-3; [1]) | IC50 (MDA-MB-231 cells; [2]) | IC50 (Daudi cells; [3]) | IC50 (NCIH82 cells; [4]) | IC50 (MV4;11 cells; [5]) | other results
1 | CNC(=O)c1ccccc1Nc1nc(Nc2ccc(N3CCN(C(=O)NCCCCOCCCCNCC(=O)Nc4cccc5c4CN(C4CCC(=O)NC4=O)C5=O)CC3)cc2)ncc1Cl (centres unmarked) [UB-181048] | > 1 µM | > 1 µM | 0.01 to 0.1 µM | 0.1 to 1 µM | < 0.01 µM | –
2 | CNC(=O)c1ccccc1Nc1nc(Nc2ccc(N3CCN(C(=O)NCCCCOCCCCNCC(=O)Nc4ccc5c(c4)CN(C4CCC(=O)NC4=O)C5=O)CC3)cc2)ncc1Cl (centres unmarked) [UB-181049] | 0.1 to 1 µM | > 1 µM | 0.01 to 0.1 µM | 0.01 to 0.1 µM | 0.01 to 0.1 µM | –
3 | CNC(=O)c1ccccc1Nc1nc(Nc2ccc(N3CCN(C(=O)NCCNCCC(=O)Nc4ccc5c(c4)CN(C4CCC(=O)NC4=O)C5=O)CC3)cc2)ncc1Cl (centres unmarked) [UB-181054] | > 1 µM | > 1 µM | 0.01 to 0.1 µM | 0.1 to 1 µM | < 0.01 µM | –
4 | CNC(=O)c1ccccc1Nc1nc(Nc2ccc(N3CCN(C(=O)N[C@H]4CC[C@@H](NCCOCCC#Cc5cccc6c5CN(C5CCC(=O)NC5=O)C6=O)CC4)CC3)cc2)ncc1Cl (some centres unmarked) [UB-181078] | – | 0.1 to 1 µM | – | 0.1 to 1 µM | < 0.01 µM | IC50 (PC-3; [6]): 0.01 to 0.1 µM; IC50 (Daudi cells; Daudi cells): 0.01 to 0.1 µM
5 | CNC(=O)c1ccccc1Nc1nc(Nc2ccc(N3CCN(C(=O)N[C@H]4CC[C@@H](NCCCC#Cc5cccc6c5CN(C5CCC(=O)NC5=O)C6=O)CC4)CC3)cc2)ncc1Cl (some centres unmarked) [UB-181100] | 0.01 to 0.1 µM | 0.1 to 1 µM | 0.01 to 0.1 µM | 0.01 to 0.1 µM | < 0.01 µM | –
6 | CNC(=O)c1ccccc1Nc1nc(Nc2ccc(N3CCN(C(=O)N[C@H]4CC[C@@H](NCCCCOCC(=O)Nc5cccc6c5CN(C5CCC(=O)NC5=O)C6=O)CC4)CC3)cc2)ncc1Cl (some centres unmarked) [UB-181102] | > 1 µM | > 1 µM | 0.1 to 1 µM | 0.1 to 1 µM | 0.01 to 0.1 µM | –
7 | CC[C@@H]1C(=O)N(C)c2cnc(Nc3ccc(C(=O)N[C@H]4CC[C@H](NCCOCCC#Cc5cccc6c5CN(C5CCC(=O)NC5=O)C6=O)CC4)cc3OC)nc2N1C1CCCC1 (some centres unmarked) [UB-181113] | – | – | – | – | – | IC50 (PC-3; Homo sapiens, PC-3, read-out: Inhibitory activity IC50 on PC-3): 0.01 to 0.1 µM; IC50 (MDA-MB-231 cells; Homo sapiens, MDA-MB-231, read-out: Inhibitory activity IC50 on MDA-MB-231): 0.01 to 0.1 µM; IC50 (Daudi cells; Homo sapiens, Daudi): 0.01 to 0.1 µM; IC50 (MV4;11 cells; Homo sapiens, MV4-11, read-out: Inhibitory activity IC50 on MV4;11): < 0.01 µM
8 | CC[C@@H]1C(=O)N(C)c2cnc(Nc3ccc(C(=O)N[C@H]4CC[C@H](NCCOCCC#Cc5cccc6c5CN(C5CCC(=O)NC5=O)C6=O)CC4)cc3)nc2N1C1CCCC1 (some centres unmarked) [UB-181144] | 0.01 to 0.1 µM | 0.01 to 0.1 µM | 0.01 to 0.1 µM | – | < 0.01 µM | –
9 | CC[C@@H]1C(=O)N(C)c2cnc(Nc3ccc(-c4cn([C@H]5CC[C@@H](NCCOCCC#Cc6cccc7c6CN(C6CCC(=O)NC6=O)C7=O)CC5)nn4)cc3OC)nc2N1Cc1ccc(Cl)s1 (some centres unmarked) [UB-181145] | < 0.01 µM | < 0.01 µM | < 0.01 µM | – | < 0.01 µM | –
10 | CC[C@@H]1C(=O)N(C)c2cnc(Nc3ccc(-c4cn([C@H]5CC[C@@H](N(CCOCCC#Cc6cccc7c6CN(C6CCC(=O)NC6=O)C7=O)C(=O)OCc6ccc(NC(=O)[C@H](CC(N)=O)NC(=O)[C@H](C)NC(=O)[C@H](C)NC(=O)CCCCCN7C(=O)C=CC7=O)cc6)CC5)nn4)cc3OC)nc2N1C1CCCC1 (some centres unmarked) [UB-181149] | 0.1 to 1 µM | 0.1 to 1 µM | 0.1 to 1 µM | – | 0.1 to 1 µM | –
11 | CC[C@@H]1C(=O)N(C)c2cnc(Nc3ccc(-c4cn([C@H]5CC[C@@H](NCCOCCC#Cc6cccc7c6CN(C6CCC(=O)NC6=O)C7=O)CC5)nn4)cc3)nc2N1C1CCCC1 (some centres unmarked) [UB-181154] | – | – | – | – | – | IC50 (PC-3; [6]): 0.01 to 0.1 µM; IC50 (MDA-MB-231 cells; MDA-MB-231 cells, read-out: Inhibitory activity IC50 on MDA-MB-231): 0.1 to 1 µM; IC50 (Daudi cells; Daudi cells): 0.1 to 1 µM; IC50 (MV4;11 cells; MV4;11 cells, read-out: Inhibitory activity IC50 on MV4;11): < 0.01 µM
12 | CC[C@@H]1C(=O)N(C)c2cnc(Nc3ccc(C(=O)N[C@H]4CC[C@@H](NCCOCCC#Cc5cccc6c5CN([C@H]5CCC(=O)NC5=O)C6=O)CC4)cc3)nc2N1C1CCCC1 [UB-181170] | 0.01 to 0.1 µM | 0.01 to 0.1 µM | 0.01 to 0.1 µM | – | < 0.01 µM | –
13 | CC[C@@H]1C(=O)N(C)c2cnc(Nc3ccc(C(=O)N[C@H]4CC[C@@H](N(C)CCOCCC#Cc5cccc6c5CN(C5CCC(=O)NC5=O)C6=O)CC4)cc3)nc2N1C1CCCC1 (some centres unmarked) [UB-181175] | 0.01 to 0.1 µM | 0.01 to 0.1 µM | 0.01 to 0.1 µM | – | < 0.01 µM | –
14 | CC[C@@H]1C(=O)N(C)c2cnc(Nc3ccc(C(=O)N[C@H]4CC[C@H](N(C)CCOCCC#Cc5cccc6c5CN(C5CCC(=O)NC5=O)C6=O)CC4)cc3)nc2N1C1CCCC1 (some centres unmarked) [UB-181176] | 0.01 to 0.1 µM | 0.01 to 0.1 µM | 0.01 to 0.1 µM | – | < 0.01 µM | –
15 | CC[C@@H]1C(=O)N(C)c2cnc(Nc3ccc(C(=O)N[C@H]4CC[C@H](N(C)CCOCCC#Cc5cccc6c5CN(C5CCC(=O)NC5=O)C6=O)CC4)cc3OC)nc2N1C1CCCC1 (some centres unmarked) [UB-181178] | 0.01 to 0.1 µM | 0.01 to 0.1 µM | < 0.01 µM | – | < 0.01 µM | –

Continued, in another order:

Row | IC50 (PC-3; [1]) | IC50 (MDA-MB-231 cells; [2]) | IC50 (Daudi cells; [3]) | IC50 (NCIH82 cells; [4]) | IC50 (MV4;11 cells; [5]) | Structure (SMILES) | other results
16 | > 1 µM | > 1 µM | 0.1 to 1 µM | 0.1 to 1 µM | 0.01 to 0.1 µM | CCNC(=O)C#Cc1ccc2c(c1)NC(=O)/C2=C(\Nc1ccc(CNCCOCCOCCOCCOCCC(=O)Nc2ccc3c(c2)CN(C2CCC(=O)NC2=O)C3=O)cc1)c1ccccc1 (centres unmarked) [UB-180957] | –
17 | > 1 µM | > 1 µM | 0.01 to 0.1 µM | 0.1 to 1 µM | < 0.01 µM | CNC(=O)c1ccccc1Nc1nc(Nc2ccc(N3CCN(C(=O)NCCCOCC(O)COCC#Cc4ccc5c(c4)CN(C4CCC(=O)NC4=O)C5=O)CC3)cc2)ncc1Cl (centres unmarked) [UB-181076] | –
18 | 0.01 to 0.1 µM | 0.1 to 1 µM | 0.01 to 0.1 µM | – | < 0.01 µM | CNC(=O)c1ccccc1Nc1nc(Nc2ccc(N3CCN(C(=O)N[C@H]4CC[C@@H](NCCOCCC#Cc5ccc6c(c5)CN(C5CCC(=O)NC5=O)C6=O)CC4)CC3)cc2)ncc1Cl (some centres unmarked) [UB-181080] | IC50 (NCIH82 cells; NCI-H82 cells): 0.1 to 1 µM
19 | 0.1 to 1 µM | 0.1 to 1 µM | 0.01 to 0.1 µM | 0.01 to 0.1 µM | < 0.01 µM | CNC(=O)c1ccccc1Nc1nc(Nc2ccc(N3CCN(C(=O)N[C@H]4CC[C@@H](NCCCC#Cc5ccc6c(c5)CN(C5CCC(=O)NC5=O)C6=O)CC4)CC3)cc2)ncc1Cl (some centres unmarked) [UB-181101] | –
20 | 0.01 to 0.1 µM | 0.1 to 1 µM | 0.01 to 0.1 µM | 0.01 to 0.1 µM | < 0.01 µM | CNC(=O)c1ccccc1Nc1nc(Nc2ccc(N3CCN(C(=O)N[C@H]4CC[C@@H](NCCC#Cc5ccc6c(c5)CN(C5CCC(=O)NC5=O)C6=O)CC4)CC3)cc2)ncc1Cl (some centres unmarked) [UB-181103] | –
21 | 0.01 to 0.1 µM | 0.01 to 0.1 µM | 0.1 to 1 µM | – | < 0.01 µM | CC[C@@H]1C(=O)N(C)c2cnc(Nc3ccc(-c4cn([C@H]5CC[C@H](NCCOCCC#Cc6cccc7c6CN(C6CCC(=O)NC6=O)C7=O)CC5)nn4)cc3)nc2N1C1CCCC1 (some centres unmarked) [UB-181118] | –
22 | 0.1 to 1 µM | 0.1 to 1 µM | 0.1 to 1 µM | – | 0.01 to 0.1 µM | CC[C@@H]1C(=O)N(C)c2cnc(Nc3ccc(C(=O)NC4CCN(CCOCCN(C)CC(=O)Nc5cccc6c5CN(C5CCC(=O)NC5=O)C6=O)CC4)cc3)nc2N1C1CCCC1 (some centres unmarked) [UB-181143] | –
23 | > 1 µM | > 1 µM | > 1 µM | – | 0.01 to 0.1 µM | CC[C@@H]1C(=O)N(C)c2cnc(Nc3ccc(C(=O)NC4CCN(CCOCCN(C)CC(=O)Nc5cccc6c5CN(C5CCC(=O)NC5=O)C6=O)CC4)nc3)nc2N1C1CCCC1 (some centres unmarked) [UB-181171] | –
24 | < 0.01 µM | < 0.01 µM | 0.01 to 0.1 µM | – | < 0.01 µM | CC[C@@H]1C(=O)N(C)c2cnc(Nc3ccc(C(=O)N[C@H]4CC[C@@H](N(C)CCOCCC#Cc5cccc6c5CN(C5CCC(=O)NC5=O)C6=O)CC4)cc3OC)nc2N1C1CCCC1 (some centres unmarked) [UB-181177] | –
